The source made the active and inactive calls.
Columns and labels:
[1] = A Cell Based Secondary Assay To Explore Cytotoxicity of Compounds that Sensitize Mycobacterium Tuberculosis to Beta-Lactam Antibiotics.; assay type: functional
[2] = target: T1, Acyl-homoserine lactone acylase PvdQ (Pseudomonas aeruginosa (strain LESB58), UniProt Q9I194); test: P. aeruginosa PvdQ acylase inhibitors, dose response, biochemical, fluorescence, plate reader and imaging, cherry-picks (AID 493231)
T1 sequence (Q9I194 whole entry): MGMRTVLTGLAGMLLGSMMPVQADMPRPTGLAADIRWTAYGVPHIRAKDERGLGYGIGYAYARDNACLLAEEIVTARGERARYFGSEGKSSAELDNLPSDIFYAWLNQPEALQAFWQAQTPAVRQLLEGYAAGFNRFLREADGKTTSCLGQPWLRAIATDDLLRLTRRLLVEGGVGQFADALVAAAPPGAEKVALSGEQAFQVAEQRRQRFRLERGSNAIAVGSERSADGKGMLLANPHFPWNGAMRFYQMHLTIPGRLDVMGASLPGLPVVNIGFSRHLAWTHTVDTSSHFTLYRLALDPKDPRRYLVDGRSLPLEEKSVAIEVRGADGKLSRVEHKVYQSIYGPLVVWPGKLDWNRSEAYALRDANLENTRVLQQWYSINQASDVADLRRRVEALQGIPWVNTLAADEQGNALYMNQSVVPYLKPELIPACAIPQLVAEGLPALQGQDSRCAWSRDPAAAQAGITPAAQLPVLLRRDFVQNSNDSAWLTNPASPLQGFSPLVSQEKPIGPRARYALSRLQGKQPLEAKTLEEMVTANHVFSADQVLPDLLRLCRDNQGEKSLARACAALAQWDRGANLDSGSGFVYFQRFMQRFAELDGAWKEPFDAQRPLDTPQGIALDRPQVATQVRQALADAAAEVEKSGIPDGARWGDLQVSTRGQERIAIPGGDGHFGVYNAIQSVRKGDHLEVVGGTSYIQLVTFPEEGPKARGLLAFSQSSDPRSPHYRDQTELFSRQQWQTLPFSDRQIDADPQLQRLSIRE

Aminopeptidase N = target: T2, Aminopeptidase N (Plasmodium falciparum FcB1/Columbia, UniProt O96935); test: P. falciparum M1AAP inhibitors, biochemical, fluorogenic H-Leu-NHMec substrate, 1536-well (AID 1445); design: species or system Plasmodium falciparum 3D7, 3D7
T2 sequence (O96935 whole entry): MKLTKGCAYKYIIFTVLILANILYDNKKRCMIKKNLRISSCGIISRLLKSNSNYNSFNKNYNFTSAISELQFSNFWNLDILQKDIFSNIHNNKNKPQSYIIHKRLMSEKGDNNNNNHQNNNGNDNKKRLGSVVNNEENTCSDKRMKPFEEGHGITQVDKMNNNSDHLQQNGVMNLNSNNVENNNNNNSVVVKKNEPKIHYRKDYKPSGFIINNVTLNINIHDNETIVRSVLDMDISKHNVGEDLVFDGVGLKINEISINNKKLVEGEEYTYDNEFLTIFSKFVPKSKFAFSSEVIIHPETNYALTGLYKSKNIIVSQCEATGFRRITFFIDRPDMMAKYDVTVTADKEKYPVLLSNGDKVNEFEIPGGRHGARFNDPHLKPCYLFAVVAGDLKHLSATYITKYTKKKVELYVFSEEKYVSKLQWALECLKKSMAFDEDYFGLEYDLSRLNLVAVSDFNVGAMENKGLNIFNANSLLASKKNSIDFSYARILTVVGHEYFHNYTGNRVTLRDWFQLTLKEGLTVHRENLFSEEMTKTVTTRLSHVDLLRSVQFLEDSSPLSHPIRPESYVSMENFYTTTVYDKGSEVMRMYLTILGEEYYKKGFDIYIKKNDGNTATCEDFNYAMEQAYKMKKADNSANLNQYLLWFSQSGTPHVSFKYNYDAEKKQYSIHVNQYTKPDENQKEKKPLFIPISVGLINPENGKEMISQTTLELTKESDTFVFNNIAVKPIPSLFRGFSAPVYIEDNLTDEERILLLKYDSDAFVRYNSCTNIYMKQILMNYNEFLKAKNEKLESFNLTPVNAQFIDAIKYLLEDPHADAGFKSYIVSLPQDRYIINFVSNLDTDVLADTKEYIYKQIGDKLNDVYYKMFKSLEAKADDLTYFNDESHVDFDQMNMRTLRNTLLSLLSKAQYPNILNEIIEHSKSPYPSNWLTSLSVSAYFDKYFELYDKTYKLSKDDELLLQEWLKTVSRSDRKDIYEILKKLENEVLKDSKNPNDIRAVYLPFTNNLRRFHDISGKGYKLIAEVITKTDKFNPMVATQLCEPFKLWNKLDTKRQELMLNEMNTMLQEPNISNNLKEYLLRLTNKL

[3] = insulin promoter down-regulators in MIN6 cells, imaging, high-content screening, mouse beta cells (AID 1628); assay type: functional
[4] = cytotoxicity in MIN6 insulinoma cells, dose response, cytotoxicity control, cell-based, mouse insulinoma (AID 2122); assay type: functional;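 note: confirmatory high-throughput counterscreen run to flag cytotoxic compounds; mouse MIN-6 beta cells carrying an insulin promoter eGFP reporter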
ORF 73 = target: T3, ORF 73 (Human herpesvirus 8, UniProt O40947); test: inhibitors of C-LANA binding to LBS DNA, dose response, biochemical, fluorescence polarization, cherry-picked samples (AID 504725); design: species or system Human gammaherpesvirus 8;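 note: fluorescence polarization of a labeled DNA duplex reporting LANA DNA binding; potency is for inhibitors that block LANA binding to the DNA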
T3 sequence (O40947 whole entry): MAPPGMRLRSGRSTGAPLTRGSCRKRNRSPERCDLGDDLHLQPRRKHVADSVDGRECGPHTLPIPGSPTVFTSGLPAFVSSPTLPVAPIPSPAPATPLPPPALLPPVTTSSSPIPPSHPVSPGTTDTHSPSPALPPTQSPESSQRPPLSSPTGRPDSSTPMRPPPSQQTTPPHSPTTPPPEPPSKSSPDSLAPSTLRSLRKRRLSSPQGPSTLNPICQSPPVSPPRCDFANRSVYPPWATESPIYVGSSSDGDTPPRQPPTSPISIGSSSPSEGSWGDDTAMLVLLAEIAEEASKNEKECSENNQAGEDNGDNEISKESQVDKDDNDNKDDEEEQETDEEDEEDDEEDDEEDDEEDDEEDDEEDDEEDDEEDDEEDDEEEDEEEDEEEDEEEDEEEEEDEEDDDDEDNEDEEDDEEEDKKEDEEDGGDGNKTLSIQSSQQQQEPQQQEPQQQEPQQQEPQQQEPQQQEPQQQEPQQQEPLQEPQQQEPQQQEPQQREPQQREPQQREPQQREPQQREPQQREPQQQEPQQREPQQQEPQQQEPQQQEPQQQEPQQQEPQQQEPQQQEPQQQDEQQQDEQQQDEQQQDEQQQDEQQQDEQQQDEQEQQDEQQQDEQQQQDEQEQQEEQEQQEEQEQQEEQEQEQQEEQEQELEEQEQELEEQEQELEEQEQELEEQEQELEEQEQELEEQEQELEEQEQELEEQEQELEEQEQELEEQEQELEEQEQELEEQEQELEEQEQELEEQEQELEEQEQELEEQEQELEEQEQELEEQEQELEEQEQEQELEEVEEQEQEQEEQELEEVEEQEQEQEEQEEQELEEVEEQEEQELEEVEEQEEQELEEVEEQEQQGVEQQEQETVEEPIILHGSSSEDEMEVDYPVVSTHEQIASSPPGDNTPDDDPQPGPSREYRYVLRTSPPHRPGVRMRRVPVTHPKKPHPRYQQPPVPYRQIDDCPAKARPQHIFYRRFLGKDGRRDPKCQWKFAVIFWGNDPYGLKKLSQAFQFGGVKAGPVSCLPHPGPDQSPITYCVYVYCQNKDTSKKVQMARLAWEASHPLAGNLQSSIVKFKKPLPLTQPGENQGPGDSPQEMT

[5] = inhibitors of intracellular T. cruzi replication, confirmation, NIH3T3 host cells, beta-gal luminescence (AID 2044); assay type: functional, cell-based;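 note: intracellular parasites grown in NIH/3T3 mouse fibroblasts as host cells; luminescent beta-galactosidase reporter signal from transgenic T. cruzi replicating inside host cells; inhibitors lower the luminescence signal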
[6] = cytotoxicity toward NIH3T3 fibroblasts, dose response, counter-screen, cell-based, ATP luminescence, mouse fibroblasts (AID 2010); assay type: functional;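 note: cells exposed to compound for about 90 hours before reading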
HEK293 = test: inhibitors of LMP1-driven NF-kB reporter, dose response, cell-based, HEK293, luciferase, cherry-pick (AID 588343); assay type: functional; conditions: Homo sapiens
[7] = target: T4, Oxysterols receptor LXR-beta (Homo sapiens, UniProt P55055); assay type: functional, cell-based;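 note: Cell-based luminescence dose-response assay of agonist activity at LXR, run as a confirmatory counterscreen to a daf-12 agonist screen; HEK293 cells with Gal4-LXR fusion and GAL4-driven luciferase reporter; agonist potency from rising luciferase signal of a Gal4-LXR reporter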
T4 sequence (P55055 whole entry): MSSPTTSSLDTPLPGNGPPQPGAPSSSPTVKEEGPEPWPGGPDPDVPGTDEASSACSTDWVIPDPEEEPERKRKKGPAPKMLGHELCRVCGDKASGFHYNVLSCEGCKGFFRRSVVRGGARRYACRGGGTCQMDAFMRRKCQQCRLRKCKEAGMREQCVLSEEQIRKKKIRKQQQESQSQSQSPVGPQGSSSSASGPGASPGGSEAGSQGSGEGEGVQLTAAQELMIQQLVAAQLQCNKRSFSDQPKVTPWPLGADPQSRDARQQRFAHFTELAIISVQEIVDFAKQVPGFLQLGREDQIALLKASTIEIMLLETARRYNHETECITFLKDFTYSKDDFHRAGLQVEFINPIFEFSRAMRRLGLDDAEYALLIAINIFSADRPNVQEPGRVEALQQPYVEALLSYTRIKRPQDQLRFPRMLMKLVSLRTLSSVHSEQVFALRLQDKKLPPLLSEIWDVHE

Leucine aminopeptidase = target: T5, Leucine aminopeptidase (Plasmodium falciparum 3D7, UniProt Q8IL11); test: P. falciparum M17LAP inhibitors, primary screen, biochemical, fluorogenic H-Leu-NHMec substrate, 1536-well (AID 1619); assay type: functional
T5 sequence (Q8IL11 whole entry): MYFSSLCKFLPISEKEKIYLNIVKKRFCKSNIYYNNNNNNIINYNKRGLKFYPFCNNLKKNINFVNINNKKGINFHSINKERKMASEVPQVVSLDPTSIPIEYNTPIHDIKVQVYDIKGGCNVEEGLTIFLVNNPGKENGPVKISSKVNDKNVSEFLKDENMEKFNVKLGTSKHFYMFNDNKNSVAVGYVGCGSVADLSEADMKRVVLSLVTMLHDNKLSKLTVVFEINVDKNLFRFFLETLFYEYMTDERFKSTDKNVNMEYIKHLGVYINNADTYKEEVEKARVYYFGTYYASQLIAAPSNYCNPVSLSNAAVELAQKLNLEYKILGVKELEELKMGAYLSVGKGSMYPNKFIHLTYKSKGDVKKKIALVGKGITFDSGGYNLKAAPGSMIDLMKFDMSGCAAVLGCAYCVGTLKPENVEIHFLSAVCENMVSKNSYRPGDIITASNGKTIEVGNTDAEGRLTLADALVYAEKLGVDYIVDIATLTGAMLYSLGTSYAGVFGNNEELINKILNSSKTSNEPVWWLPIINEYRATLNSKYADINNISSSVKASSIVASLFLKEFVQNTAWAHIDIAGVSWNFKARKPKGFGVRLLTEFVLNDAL

Large T antigen = Large T antigen (Simian virus 40, UniProt P03070); assay type: functional, Betapolyomavirus macacae;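 note: Confirmatory-stage PubChem screen for compounds that inhibit SV40 T antigen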
Large T antigen, sequence (P03070 whole entry): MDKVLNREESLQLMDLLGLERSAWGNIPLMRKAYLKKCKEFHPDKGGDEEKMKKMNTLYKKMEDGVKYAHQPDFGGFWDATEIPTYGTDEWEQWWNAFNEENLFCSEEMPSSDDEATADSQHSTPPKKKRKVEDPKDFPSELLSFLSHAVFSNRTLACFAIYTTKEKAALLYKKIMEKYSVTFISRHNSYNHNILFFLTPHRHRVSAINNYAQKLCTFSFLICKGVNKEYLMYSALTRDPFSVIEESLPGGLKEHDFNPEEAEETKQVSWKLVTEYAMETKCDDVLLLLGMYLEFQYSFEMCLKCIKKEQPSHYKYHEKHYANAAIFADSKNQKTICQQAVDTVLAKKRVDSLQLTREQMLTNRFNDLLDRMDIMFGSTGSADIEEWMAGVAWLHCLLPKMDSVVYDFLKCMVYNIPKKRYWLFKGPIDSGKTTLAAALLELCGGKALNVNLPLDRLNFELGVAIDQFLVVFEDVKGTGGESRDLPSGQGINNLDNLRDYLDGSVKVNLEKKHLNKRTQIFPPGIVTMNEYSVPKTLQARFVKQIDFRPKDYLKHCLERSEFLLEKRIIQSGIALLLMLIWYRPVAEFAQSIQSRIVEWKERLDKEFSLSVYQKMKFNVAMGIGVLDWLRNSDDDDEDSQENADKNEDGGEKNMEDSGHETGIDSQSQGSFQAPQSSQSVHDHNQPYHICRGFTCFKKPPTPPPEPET

[8] = target: T6, Rac GTPase-activating protein 1 (Homo sapiens, UniProt Q9H0H5); test: MgcRacGAP GTPase-activating activity inhibitors, confirmation, biochemical, ADP Hunter fluorescence, primary and confirmatory (AID 624330); assay type: functional
T6 sequence (Q9H0H5 whole entry): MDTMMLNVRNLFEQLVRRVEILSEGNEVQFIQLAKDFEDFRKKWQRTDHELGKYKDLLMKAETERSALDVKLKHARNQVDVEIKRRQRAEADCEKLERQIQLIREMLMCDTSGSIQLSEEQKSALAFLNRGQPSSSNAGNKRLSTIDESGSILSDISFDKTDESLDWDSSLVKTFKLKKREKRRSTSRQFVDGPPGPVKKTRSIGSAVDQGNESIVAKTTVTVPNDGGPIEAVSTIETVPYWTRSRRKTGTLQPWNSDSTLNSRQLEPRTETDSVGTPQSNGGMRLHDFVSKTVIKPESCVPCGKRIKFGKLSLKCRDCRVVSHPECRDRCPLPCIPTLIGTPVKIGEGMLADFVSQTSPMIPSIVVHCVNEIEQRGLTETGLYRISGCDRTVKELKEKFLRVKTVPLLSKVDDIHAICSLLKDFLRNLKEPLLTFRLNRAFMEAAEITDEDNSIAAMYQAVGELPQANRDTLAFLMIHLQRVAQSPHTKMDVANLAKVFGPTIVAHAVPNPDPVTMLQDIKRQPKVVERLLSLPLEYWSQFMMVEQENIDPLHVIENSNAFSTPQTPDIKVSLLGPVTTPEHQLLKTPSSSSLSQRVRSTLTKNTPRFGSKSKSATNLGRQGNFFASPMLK

For `COCc1cc(O)n2ncc(-c3ccccc3)c2n1`, the CC50 [1] was > 40 µM (active).

For `O=C(/C=C/c1ccc2c(c1)OCCO2)c1ccccc1`, the AC50 [2] was 29.3 µM (active).

With `CCOC(=O)N1CCN(C(=O)c2ccc3c(c2)sc2nc(-c4ccccc4)cn23)CC1` the IC50 (Aminopeptidase N) was 73.4 µM (active).

In the case of `Cn1nc(-c2ccc(OCC(=O)NCC3CCCO3)cc2)c2ccccc2c1=O` (configuration not stated), the CC50 [1] is reported as > 40 µM (active).

In the case of `Cc1cccc(NC(S)=NC(C)(C)CC(C)(C)C)c1`, the IC50 [3] is reported as 1.92 µM (active) and the IC50 [4] is reported as 1.87 µM (active).

With `O=C(/C=C/c1cccc([N+](=O)[O-])c1)N1CCN(Cc2ccc3c(c2)OCO3)CC1` the IC50 (Aminopeptidase N) was 108 µM (active).

With `COc1ccc(Cn2c(C)nc3c(c(=O)c4ccccc4n3C)c2=O)cc1` the CC50 [1] was > 40 µM (active).

In the case of `COCCN(CCOC)Cc1c(O)ccc2c1O/C(=C\c1ccco1)C2=O`, the AC50 (ORF 73) is reported as 11.9 µM (active).

In the case of `Cc1ccc(NC(=O)Nc2cccs2)nc1`, the IC50 (Aminopeptidase N) is reported as 26.4 µM (active).

For `COc1ccc(NC(=S)N(CCCN2CCCC2)Cc2cccn2Cc2ccc(Cl)cc2)cc1Cl`, the IC50 [3] was 2.89 µM (active) and the IC50 [4] was 3.27 µM (active).

For `C=CCOC(=O)c1ccc(-n2cnc(C)n2)nc1`, the AC50 [2] was 4.58 µM (active).

In the case of `CCOc1ccc(Nc2ncnc3ccc([N+](=O)[O-])cc23)cc1`, the EC50 [5] is reported as 2.22 µM (active), the EC50 [6] is reported as > 60 µM (not active) and the AC50 [2] is reported as 30.8 µM (active). For the same molecule, the AC50 (HEK293) was 8.95 µM (active).

With `O=C(COc1ccccc1Cl)Nc1ccc(Cl)cn1` the EC50 [7] was > 67.5 µM (inactive) and the EC50 (cells) was > 67.5 µM (inactive).

For `O=[N+]([O-])c1ccc(-c2cccnc2)cc1`, the AC50 [2] was 13.1 µM (active).

For `COc1ccc2c(c1)c(C(=O)N/N=C/c1ccc(O)c(O)c1)c(C)n2C`, the IC50 (Leucine aminopeptidase) was 29.7 µM (active), the IC50 (Large T antigen) was 16.7 µM (active) and the IC50 [8] was 23.5 µM (active).

In the case of `C/C(=N\Nc1nc2ccccc2s1)c1cccs1`, the EC50 [7] is reported as > 67.5 µM (inactive) and the EC50 (cells) is reported as > 67.5 µM (inactive).

For `C/C(=N\Nc1cc(N2CCOCC2)nc(C)n1)c1cccc([N+](=O)[O-])c1`, the IC50 [3] was 1.98 µM (active) and the IC50 [4] was 3.14 µM (active).

— ChEMBL document CHEMBL1201862, “PubChem BioAssay data set” (2004)
